Measurements from US20220162215A1, “COMPOSITIONS AND METHODS OF USING THE SAME FOR TREATMENT OF NEURODEGENERATIVE AND MITOCHONDRIAL DISEASE” (MITOKININ, INC., priority 2019, published 2022).
Read-outs that look alike come from different tables or passages of the source.

Tests used:
[1] = Visual inspection of crystallization; format: physicochemical; set-up: key: 1: yes crystals; 0: no crystals; conditions: Tables 5A-5D
Protocol: (§1) Briefly, the Hela MKYP (Mito-Keima/YFP-Parkin) cells were seeded at 10K cells/well. EP/MTK compounds were added at seeding (cells were still in suspension). The cells were incubated with the EP/MTK compounds for 16 hours, then 1 μM FCCP/oligomycin was added for 6 hours. Prior to harvesting, cells were scored by eye under 20× magnification for the presence or absence of crystalline or aggregated compound, or round cells.

HeLa MKYP cells [2] = assay: Toxicity / cell death measured by DAPI staining (take-up); format: cell-based
Protocol: H2O2 treatment was performed as a control for cell death as measured by DAPI staining.
Briefly, HeLa MKYP cells were plated at 10,000 cells/well in 96 well plates along with compounds at various concentrations. Following 16 hrs of incubation, cells were treated with 1 uM FCCP/oligomycin for 6 hours, then analyzed via FACS for the presence of mitochondria in lysosomes (as determined by an emissions spectrum shift from the pH-sensitive mtKeima tag).

[3] = tested on: Hela MKYP (Mito-Keima/YFP-Parkin) cells; assay: Inspection of round cells; conditions: Tables 6A-6D
Protocol: as §1

HeLa MKYP cells [4] = assay: Human mitophagy assay (HeLa MKYP, mtKeima FACS, FCCP/oligomycin); format: cell-based
Protocol: Briefly, HeLa MKYP cells were plated at 10,000 cells/well in 96 well plates along with compounds at various concentrations. Following 16 hrs of incubation, cells were treated with 1 uM FCCP/oligomycin for 6 hours, then analyzed via FACS for the presence of mitochondria in lysosomes (as determined by an emissions spectrum shift from the pH-sensitive mtKeima tag). Examples are shown in FIG. 1 through FIG. 13 below.

[5] = Homo sapiens, HeLa, Table 3, read-out: Potency at 1 μM F/O toxin* (EC50 of mitophagy activation)
[6] = Homo sapiens, HeLa, Table 3 Supplement A, as measured in Table 3, read-out: Potency (EC50 Max Mitophagy) (μM)*

Compound | Toxicity (% positive for DAPI takeup @ 50 μM) (HeLa MKYP cells [2]; Table 3) | Toxicity (% positive for DAPI take-up at 50 μM)* (HeLa MKYP cells [2]; Table 3 Supplement A) | EC50 (HeLa MKYP cells [4]; [5]) | EC50 (HeLa MKYP cells [4]; [6]) | other results
C[C@H](Nc1ncnc2[nH]cnc12)c1ccccc1 [Compound 27] | 11.7% | 13.52% | 2 µM | 2.09 µM | Visual inspection of crystallization ([1]; 1.6 μM): 0; Visual inspection of crystallization ([1]; 3.1 μM): 0; Visual inspection of crystallization ([1]; 6.3 μM): 0; Visual inspection of crystallization ([1]; 12.5 μM): 0; Visual inspection of crystallization ([1]; 25.0 μM): 0; Visual inspection of crystallization ([1]; 50.0 μM): 0; Inspection of round cells ([3]; 1.6 μM): 0; Inspection of round cells ([3]; 3.1 μM): 0; Inspection of round cells ([3]; 6.3 μM): 0; Inspection of round cells ([3]; 12.5 μM): 0; Inspection of round cells ([3]; 25.0 μM): 0; Inspection of round cells ([3]; 50.0 μM): 0
CC(Nc1ncnc2[nH]c(C3CC3)nc12)c1ccccc1 (stereo not drawn) [Compound 28] | 18.3% | 18.26% | 6.3 µM | 6.32 µM | Visual inspection of crystallization ([1]; 1.6 μM): 0; Visual inspection of crystallization ([1]; 3.1 μM): 0; Visual inspection of crystallization ([1]; 6.3 μM): 0; Visual inspection of crystallization ([1]; 12.5 μM): 0; Visual inspection of crystallization ([1]; 25.0 μM): 0; Visual inspection of crystallization ([1]; 50.0 μM): 0; Inspection of round cells ([3]; 1.6 μM): 0; Inspection of round cells ([3]; 3.1 μM): 0; Inspection of round cells ([3]; 6.3 μM): 0; Inspection of round cells ([3]; 12.5 μM): 0; Inspection of round cells ([3]; 25.0 μM): 0; Inspection of round cells ([3]; 50.0 μM): 0
c1ccc2c(c1)CC[C@H]2Nc1ncnc2[nH]cnc12 [Compound 55] | 10.3% | 10.31% | > 50 µM | > 25 µM | 
COc1ccccc1CNc1ncnc2nc[nH]c12 [Compound 56] | 12.4% | 12.42% | 10.8 µM | 10.8 µM | 
Clc1cccc(CNc2ncnc3nc[nH]c23)c1 [Compound 58] | 12.5% | 12.54% | 16 µM | 16 µM | 
c1ccc2c(c1)OCC[C@@H]2Nc1ncnc2[nH]cnc12 [Compound 59] | 17.0% | 19.76% | 1.8 µM | 1.69 µM | 
c1ccc(CCNc2ncnc3[nH]cnc23)cc1 [Compound 60] | 19.7% | 23.09% | 2.8 µM | 2.26 µM | 
OC[C@@H](Nc1ncnc2[nH]cnc12)c1ccccc1 [Compound 61] | 8.9% | 8.9% | > 50 µM | > 25 µM | 
c1ccc2c(c1)OCC[C@H]2Nc1ncnc2[nH]cnc12 [Compound 62] | 16.0% | 15.96% | > 50 µM | > 25 µM | 
C[C@@H](Nc1ncnc2[nH]cnc12)c1ccccc1 [Compound 63] | 11.5% |  |  |  | Toxicity (% positive for DAPI take-up at 50 μM)* (HeLa MKYP cells [2]; Table 3 Supplement A, listed as EP-0036422): 11.51%; EC50 (HeLa MKYP cells [4]; Table 3, read-out: Potency at 1 μM F/O toxin* (EC50 of mitophagy activation)): 47.4 µM; EC50 (HeLa MKYP cells [4]; Table 3 Supplement A, as measured in Table 3, read-out: Potency (EC50 Max Mitophagy) (μM)*): > 25 µM
C[C@@H](Nc1nccc2[nH]cnc12)c1ccccc1 [Compound 64] | 7.6% | 7.63% | > 50 µM | > 25 µM | 
CC(CNc1ncnc2[nH]cnc12)c1ccccc1 (stereo not drawn) [Compound 65] | 28.9% | 28.92% | 3.6 µM | 3.61 µM | 
c1ccc(C2(Nc3ncnc4[nH]cnc34)CC2)cc1 [Compound 72] | 13.4% | 13.38% | > 50 µM | > 25 µM | 
Cc1nc2c(N[C@H](C)c3ccccc3)ncnc2[nH]1 [Compound 73] | 9.7% | 9.69% | > 50 µM | > 25 µM | 
Cc1nc2c(N[C@@H](C)c3ccccc3)ncnc2[nH]1 [Compound 74] | 31.9% | 31.93% | 4.6 µM | 4.65 µM | 
OC[C@H](Nc1ncnc2[nH]cnc12)c1ccccc1 [Compound 75] | 14.5% | 14.49% | 3.5 µM | 3.48 µM | 
OC[C@H](Nc1ncnc2[nH]c(C(F)(F)F)cc12)c1ccccc1 [Compound 76] | 30.4% | 30.45% | 14.7 µM | 14.7 µM | 
OC[C@@H](Nc1ncnc2[nH]c(C(F)(F)F)cc12)c1ccccc1 [Compound 77] | 30.3% | 30.27% | 4.4 µM | 4.41 µM | 
FC(F)(F)c1cc2c(NC3CCN(Cc4ccccc4)CC3)ncnc2[nH]1 [Compound 78] | 43.9% | 43.86% | 21.4 µM | 21.4 µM | 
O=S1(=O)Cc2ccccc2C(Nc2ncnc3[nH]c(C(F)(F)F)cc23)C1 (stereo not drawn) [Compound 79] | 13.2% | 13.18% | > 50 µM | > 25 µM | 
CN1CC[C@H](Nc2ncnc3[nH]c(C(F)(F)F)cc23)c2ccccc21 [Compound 80] | 28.1% | 8.7% | 1.9 µM | 1.81 µM | 
c1ccc2c(c1)OCC[C@H]2Nc1ncnc2[nH]c(C3CC3)cc12 [Compound 111] | 17.3% |  | 2 µM |  | Max cell death at 25 uM compound, 1 uM FO (HeLa MKYP cells [2]; Table 3 Supplement B, 25 uM compound, 1 uM FO): 17.3%; Cell death at 25 μM (no FO) (HeLa MKYP cells [2]; Table 3 Supplement B, 25 μM, no FO): 7.26%; EC50 (HeLa MKYP cells [4]; Homo sapiens, HeLa, Table 3 Supplement B, read-out: Mitophagy EC50 (HeLa mKeima assay)): 1.98 µM
CCCCNc1ncnc2[nH]c(C3CC3)nc12 [Compound 34886, N-butyl-8-cyclopropyl-9H-purin-6-amine] |  |  |  |  | Toxicity (% positive for DAPI takeup @ 50 μM) (HeLa MKYP cells [2]; Table 4): 9.1%; EC50 (HeLa MKYP cells [4]; Homo sapiens, HeLa, Table 4, read-out: Potency (EC50 Max Mitophagy)): 9.1 µM
c1coc(CNc2ncnc3[nH]c(C4CCC4)nc23)c1 [EP-0035338, 8-cyclobutyl-N-(2-furylmethyl)-9H-purin-6-amine] |  | 3.04% |  | > 25 µM | 
CCCCNc1ncnc2[nH]c(C3CCC3)nc12 [EP-0035339, N-butyl-8-cyclobutyl-9H-purin-6-amine] |  | 6.13% |  | > 25 µM | 
COc1cc(CNc2ncnc3[nH]c(C4CC4)nc23)ccn1 [EP-0036032, 8-cyclopropyl-N-[(2-methoxy-4-pyridyl)methyl]-9H-purin-6-amine] |  | 7.06% |  | > 25 µM | 
c1ncc(CNc2ncnc3[nH]c(C4CC4)nc23)cn1 [EP-0036050, 8-cyclopropyl-N-(pyrimidin-5-ylmethyl)-9H-purin-6-amine] |  |  |  | > 25 µM | Toxicity (% positive for DAPI take-up at 50 μM)* (HeLa MKYP cells [2]; human): 7.06%
